Source: patent US10669310B2, “Peptide for cancer treatment and pharmaceutical composition containing same” (TOKUSHIMA UNIVERSITY, priority 2016, dated 2020)
Read-outs that look alike come from different tables or passages of the source. *1 amine or outer side, *2 acyl side, *3 side chain or, on linkers, in order; H or OH if unused. Where a SMILES comes first, the peptide text is derived from it. Bridges are numbered along the chain shown (N, C = ends). [ ]: non-standard residue; d: D form. NH(CH2)4NH = C(CCN[*:2])CN[*:1]

Tests used:
MCF-7 cells = assay type: cell-based, human; details: for duration of significant cell growth inhibitory effects: 1 μM, E2-dependent growth of MCF-7
Method: (§1) Human breast cancer cell line MCF-7 and mammary epithelial cell line MCF-10A were purchased from American Type Culture Collection (ATCC, Manassas, Va., USA). Breast cancer cell line KPL-3C (J. Kurebayashi, et al., Br. J. Cancer 74, 200-207 (1996)) was kindly provided by Dr. Junichi Kurebayashi (Kawasaki Medical School). All cell lines were monolayer cultured in an appropriate medium supplemented with 10% FBS. The cells were maintained at 37° C. under humidified atmosphere containing 5% CO2.
(§2) In each experiment, the respective cells were seeded in a 48-well plate (2×10^4 cells/mL), a 6-well plate (3×10^5 cells/mL), or a 10-cm dish (2×10^6 cells/10 mL). MCF-7 cells were seeded in MEM (Thermo Fisher Scientific) supplemented with 10% FBS (Nichirei Biosciences Inc., Tokyo, Japan), 1% Antibiotic/Antimycotic solution (Thermo Fisher Scientific, Waltham, Mass., USA), 0.1 mM NEAA (Thermo Fisher Scientific), 1 mM sodium pyruvate (Thermo Fisher Scientific), and 10 μg/mL insulin (Sigma, St. Louis, Mo., USA). KPL-3C cells were seeded in RPMI (Thermo Fisher Scientific) supplemented with 10% FBS and 1% Antibiotic/Antimycotic solution. MCF-10A cells were seeded in MEBM (Lonza) supplemented with a Single Quots kit (BPE, hydrocortisone, hEGF, insulin, gentamycin/amphoterin-B) (Lonza, Walkersville, Md., USA) and 100 ng/mL cholera toxin. For 17β-estradiol (E2) (Sigma) stimulation, the media for MCF-7 and KPL-3C were changed to phenol red-free DMEM/F12 (Thermo Fisher Scientific) supplemented with 10% FBS, 1% Antibiotic/Antimycotic solution, 0.1 mM NEAA, 1 mM sodium pyruvate, and 10 μg/mL insulin on the day after seeding. Twenty-four hours later, the cells were treated with 10 nM E2 and a peptide (for example, 11R-ERAP or a stapled ERAP), or with 10 nM E2 alone.
When carrying out treatment with tamoxifen (Sigma) or fulvestrant (LKT laboratories, St. Paul, Minn., USA), cells were treated with 10 nM tamoxifen or 2 μM fulvestrant simultaneously with the above-mentioned treatment with E2 and a peptide or with E2 alone.
Cell growth assays on MCF-7, KPL-3C, and MCF-10A were carried out as described previously using a Cell Counting Kit-8 (CCK-8) (Dojindo, Kumamoto, Japan) (T. Yoshimaru, et al., Nat. Commun. 4, 2443 (2013)). The data are shown by mean±SE of three independent experiments.

[1] = assay type: in vivo; details: i.p. every day or every four days, 28 days
Method: KPL-3C cell suspensions (1×10^7 cells/mouse) were mixed with an equal volume of Matrigel (BD) and injected (200 μL in total) into the mammary fat pads of 6-week-old female BALB/c nude mice (Charles River Laboratories, Tokyo, Japan). The mice were housed in a pathogen-free isolation facility with a twelve-hour light/dark cycle and were fed solid rodent chow and water ad libitum. The tumors developed over several days and reached sizes of approximately 100 mm^3 [calculated as ½×(width×length^2)]. The mice were randomized into the following eleven treatment groups (five heads per group):
E2 was administered via application of a solution to the neck skin, and regarding the other treatments, administration was performed via intraperitoneal injection unless other administration methods are stated. The tumor volume was measured with calipers for 28 days, and then the mice were subjected to scheduled sacrifice to remove tumors. All the experiments were performed in accordance with the guidelines of the animal facility at Tokushima University.

BIG3-PHB2 interaction = biological target: T1, BIG3-PHB2 interaction (Homo sapiens, UniProt Q99623); assay: Co-immunoprecipitation with anti-BIG3 antibody in MCF-7 cells; assay type: cell-based; details: MCF-7, 1 μM, 24 hours after treatment
T1 construct: complex formation between the endogenous BIG3 and PHB2 in ERα-positive breast cancer cell line MCF-7; endogenous in cells; host or cells: MCF-7
Method: Immunoblot analyses were performed as described previously (T. Yoshimaru, et al., Nat. Commun. 4, 2443 (2013)). After performing SDS-PAGE, the membranes blotted with proteins were blocked with 4% BlockAce solution (Dainippon Pharmaceutical, Osaka, Japan) for three hours and then incubated with antibodies against the following proteins: BIG3 (1:1,000) (T. Yoshimaru, et al., Nat. Commun. 4, 2443 (2013)); PHB2 (1:1,000) (Abeam, Cambridge, UK); Akt, phosphorylated Akt (S473) (587F11, 1:1,000); p44/42 MAPK, phosphorylated p44/42 MAPK (T202/Y204) (1:1,000); α/β-tubulin (1:1,000) (Cell Signaling Technology, Danvers, Mass., USA); and LMNB1 (1:100) (Sigma). After incubation with an HRP-labeled secondary antibody (anti-mouse IgG-HRP, 1:5,000; anti-rat IgG-HRP; 1:5,000; or anti-rabbit IgG-HRP, 1:1,000) (Santa Cruz Biotechnology, Dallas, Tex., USA) for one hour, the blots were developed with an Enhanced Chemiluminescence (ECL) system (GE Healthcare, Buckinghamshire, UK) and scanned using an Image Reader LAS-3000 mini (Fujifilm, Tokyo, Japan). All the experiments were performed at least in triplicate.
Immunoprecipitation analysis was performed as described previously (T. Yoshimaru, et al., Nat. Commun. 4, 2443 (2013)). Cell lysates were pre-cleared with normal IgG and rec-Protein G Sepharose 4B (Thermo Fisher Scientific) at 4° C. for three hours. Then, the supernatants were incubated with 5 μg of an antibody against BIG3 or an antibody against PHB2 at 4° C. for twelve hours. Next, the antigen-antibody complexes were precipitated using rec-Protein G Sepharose 4B at 4° C. for one hour. The immunoprecipitated protein complexes were washed several times with a lysis buffer. Then, SDS-PAGE and immunoblot analyses were carried out as described above.

[2] = In vitro blood-brain barrier permeability test; assay type: in vitro ADME
Method: BIG3 is expressed in the brain though expression is weak (Kim, J. W. et al., Cancer Sci. 100, 1468-1478 (2009)). Then, since there were concerns of side effects due to the transfer of stapled ERAP to the brain, blood-brain-barrier permeability test was carried out on stapled ERAP. Blood-brain-barrier permeability of stapled ERAP (No. 12) was examined by placing stapled ERAP (No. 12) to the inner side (vascular cavity side) of the insert of a blood-brain barrier permeability kit, and measuring the concentration of stapled ERAP (No. 12) that passed through a filter specialized for intracerebral transferability assay and leaked into the well (cerebral parenchyma side) of the plate in 30 minutes. The permeability coefficient (Papp) at this time was calculated (2 or less: very low permeability; 2 to 10: low permeability; 10 to 20: high permeability; and 20 or higher: very high permeability).

MCF-10A cells = assay: Cell growth (MTT) assay, MCF-10A cells; assay type: cell-based, human; details: normal mammary epithelial cells, ERα-negative and BIG3-negative
Method: as §1
as §2, with “For 17β-estradiol (E2) (Sigma) stimulation, the media for MCF-7 and KPL-3C were changed to phenol red-free DMEM/F12 (Thermo Fisher Scientific) supplemented with 10% FBS, 1% Antibiotic/Antimycotic solution, 0.1 mM NEAA, 1 mM sodium pyruvate, and 10 μg/mL insulin on the day after seeding. Twenty-four hours later, the cells were treated with 10 nM E2 and a peptide (for example, 11R-ERAP or a stapled ERAP), or with 10 nM E2 alone.” left out

T1 sequence (Q99623 2-299 limits assumed): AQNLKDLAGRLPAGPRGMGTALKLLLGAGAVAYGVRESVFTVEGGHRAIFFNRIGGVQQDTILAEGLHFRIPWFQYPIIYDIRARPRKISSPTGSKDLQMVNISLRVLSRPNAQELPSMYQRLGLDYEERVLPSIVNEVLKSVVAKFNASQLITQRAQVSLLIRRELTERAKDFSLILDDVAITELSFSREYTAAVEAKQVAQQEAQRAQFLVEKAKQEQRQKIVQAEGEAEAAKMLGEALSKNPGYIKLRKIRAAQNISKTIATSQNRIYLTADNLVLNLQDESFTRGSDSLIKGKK

Compound: CSCC[C@H](NC(=O)[C@H](CCC(N)=O)NC(=O)CNC(=O)CNC(=O)CNC(=O)[C@H](CCCNC(=N)N)NC(=O)[C@H](CCCNC(=N)N)NC(=O)[C@H](CCCNC(=N)N)NC(=O)[C@H](CCCNC(=N)N)NC(=O)[C@H](CCCNC(=N)N)NC(=O)[C@H](CCCNC(=N)N)NC(=O)[C@H](CCCNC(=N)N)NC(=O)[C@H](CCCNC(=N)N)NC(=O)[C@H](CCCNC(=N)N)NC(=O)[C@H](CCCNC(=N)N)NC(=O)[C@@H](N)CCCNC(=N)N)C(=O)N[C@@H](CC(C)C)C(=O)N[C@@H](CO)C(=O)N[C@@H](CC(=O)O)C(=O)N[C@@H](CC(C)C)C(=O)N[C@H](C(=O)N[C@@H](CC(C)C)C(=O)N[C@@H](CCC(N)=O)C(=O)N[C@@H](CC(C)C)C(=O)N[C@@H](CCCNC(=N)N)C(=O)N[C@@H](CCC(N)=O)C(=O)N[C@@H](CCCNC(=N)N)C(=O)O)[C@@H](C)O [11R-ERAP, 11R-GGG-QMLSDLTLQLRQR, reference compound] (H-RRRRRRRRRRRGGGQMLSDLTLQLRQR-OH; N-terminus and C-terminus assumed)
- inhibition rate of E2-dependent growth (MCF-7 cells): 45%
- IC50 (MCF-7 cells; 96 h): 7.97 µM
- toxicity, body weight [1]: No toxicity or significant body weight decrease

Compound: CSCC[C@H](NC(=O)[C@@H](N)CCC(N)=O)C(=O)N[C@@H](CC(C)C)C(=O)N[C@@H](CO)C(=O)N[C@@H](CC(=O)O)C(=O)N[C@@H](CC(C)C)C(=O)N[C@H](C(=O)N[C@@H](CC(C)C)C(=O)N[C@@H](CCC(N)=O)C(=O)N[C@@H](CC(C)C)C(=O)N[C@@H](CCCNC(=N)N)C(=O)N[C@@H](CCCNC(=N)N)C(=O)N[C@@H](CCCNC(=N)N)C(=O)N[C@@H](CCCNC(=N)N)C(=O)N[C@@H](CCCNC(=N)N)C(=O)N[C@@H](CCCNC(=N)N)C(=O)N[C@@H](CCCNC(=N)N)C(=O)N[C@@H](CCCNC(=N)N)C(=O)O)[C@@H](C)O [QMLSDLTLQL-8R] (H-QMLSDLTLQLRRRRRRRR-OH; N-terminus and C-terminus assumed)
- IC50 (MCF-7 cells): 7.98 µM

Compound: CSCC[C@H](NC(=O)[C@@H](N)CCC(N)=O)C(=O)N[C@@H](CC(C)C)C(=O)N[C@@H](CO)C(=O)N[C@@H](CC(=O)O)C(=O)N[C@@H](CC(C)C)C(=O)N[C@H](C(=O)N[C@@H](CC(C)C)C(=O)N[C@@H](CCC(N)=O)C(=O)N[C@@H](CC(C)C)C(=O)N[C@@H](CCCNC(=N)N)C(=O)N[C@@H](CCC(N)=O)C(=O)N[C@@H](CCCNC(=N)N)C(=O)N[C@@H](CCCNC(=N)N)C(=O)N[C@@H](CCCNC(=N)N)C(=O)N[C@@H](CCCNC(=N)N)C(=O)N[C@@H](CCCNC(=N)N)C(=O)N[C@@H](CCCNC(=N)N)C(=O)N[C@@H](CCCNC(=N)N)C(=O)N[C@@H](CCCNC(=N)N)C(=O)N[C@@H](CCCNC(=N)N)C(=O)O)[C@@H](C)O [QMLSDLTLQLRQR-8R] (H-QMLSDLTLQLRQRRRRRRRRR-OH; N-terminus and C-terminus assumed)
- IC50 (MCF-7 cells): 7.78 µM

Compound: CSCC[C@@H](NC(=O)[C@H]1CCC(=O)NCCCCNC(=O)CC[C@@H](NC(C)=O)C(=O)N[C@H](CC(C)C)C(=O)N[C@H](CC(=O)O)C(=O)N[C@H](CO)C(=O)N1)C(=O)N[C@H](CCC(N)=O)C(N)=O [shRI stapled ERAP No. 12] (Ac-[dE][dL][dD][dS][dE][dM][dQ]-NH2; linker 1-5 via NH(CH2)4NH; N-terminus and C-terminus assumed)
- duration of significant cell growth inhibitory effects (MCF-7 cells): seven
- IC50 (MCF-7 cells; 96 h): 0.53 µM
- inhibition of endogenous BIG3-PHB2 complex formation (BIG3-PHB2 interaction): inhibited endogenous BIG3-PHB2 complex formation

Compound: CSCC[C@H](NC(=O)[C@H](CCC(N)=O)NC(C)=O)C(=O)N[C@H]1CCC(=O)NCCCCNC(=O)CC[C@@H](C(=O)N[C@@H](CC(C)C)C(=O)N[C@@H](CCC(N)=O)C(=O)N[C@@H](CC(C)C)C(=O)N[C@@H](CCCNC(=N)N)C(=O)N[C@@H](CCC(N)=O)C(=O)N[C@@H](CCCNC(=N)N)C(N)=O)NC(=O)[C@H](CC(C)C)NC(=O)[C@H](CC(=O)O)NC(=O)[C@H](CO)NC1=O [stapled ERAP No. 12]
- IC50 (MCF-7 cells; 96 h): 0.59 µM
- toxicity, body weight [1]: No toxicity or significant body weight decrease
- Papp at 30 min, 30 μM ([2]; 30 μM): 0.177 ×10⁻⁶ cm/s
- Papp at 30 min ([2]; 30 minutes, 2 or less: very low permeability, read-out: blood-brain barrier permeability coefficient (Papp)): ≤ 2 ×10⁻⁶ cm/s
- recovery at 30 minutes, 10 μM ([2]; not told, 10 μM, read-out: Recovery Rate): 0%
- recovery at 30 minutes, 30 μM ([2]; not told, 30 μM, read-out: Recovery Rate): 0.01%

Compound: CSCC[C@@H](NC(=O)[C@@H](CCC(N)=O)NC(C)=O)C(=O)N[C@@H]1CCC(=O)NCCCCNC(=O)CC[C@H](C(=O)N[C@H](CC(C)C)C(=O)N[C@H](CCC(N)=O)C(=O)N[C@H](CC(C)C)C(=O)N[C@H](CCCNC(=N)N)C(=O)N[C@H](CCC(N)=O)C(=O)N[C@H](CCCNC(=N)N)C(N)=O)NC(=O)[C@@H](CC(C)C)NC(=O)[C@@H](CC(=O)O)NC(=O)[C@@H](CO)NC1=O [stapled-D-ERAP No. 12]
- duration of significant cell growth inhibitory effects (MCF-7 cells): seven
- IC50 (MCF-7 cells; 96 h): 0.44 µM
- effect on MCF-10A cell growth (MCF-10A cells): not inhibited
- inhibition of endogenous BIG3-PHB2 complex formation (BIG3-PHB2 interaction): inhibited endogenous BIG3-PHB2 complex formation

Compound: QMLSDLTLQLRQR (PHB2-binding peptide derived from BIG3) [ERAP, reference compound]
- effect on E2-dependent MCF-7 cell growth (MCF-7 cells): did not show effects
